Consider two compounds from US20250169496A1, “USE OF 2-AMINO-3-HYDROXY-3-METHYLBUTYRIC ACID AND/OR 2-AMINO-3-(4-HYDROXYPHENYL) BUTYRIC ACID” (NANJING TIANNONG BIOTECHNOLOGY CO., LTD., priority 2021, published 2025).

One series relates to wheat powdery mildew. Kind of series: Field test of induced resistance of wheat to powdery mildew. The series is classed as in vivo. Conditions: 1,000 nM; for Thousand kernel weight: dried harvested wheat seeds; for Relative immune effect: vs additive control. On the procedure: Spraya 2-amino-3-hydroxy-3-methylbutyric acid solution (surfactant Tween 20 (0.02% (v/v) is added) at a concentration of 1,000 nM on stems and leaves in the field of Jiangsu Academy of Agricultural Sciences, use surfactant Tween 20 with a spray volume percent of 0.02% as an additive control, Atailing with 30 g sprayed per mu as a positive control, and repeat each treatment for three times. Investigate the wheat morbidity level of each treatment, record the morbidity level according to the wheat powdery mildew grading standard in the Pesticide—Guidelines for the Field Efficacy Trials(I) and calculate the disease index and relative immune effect by the calculation method same as that for the disease index and relative immune effect of tomato spotted wilt. After drying of the harvested wheat seeds, determine the thousand kernel weight of the wheat seeds under different treatments. The wheat powdery mildew grading standard (with leaf as a unit): • Level 1: The area of the disease spots accounts for less than 5% of the whole leaf area; • Level 3: The area of the disease spots accounts for 6%-15% of the whole leaf area; • Level 5: The area of the disease spots accounts for 16%-25% of the whole leaf area; • Level 7: The area of the disease spots accounts for 26%-50% of the whole leaf area; • Level 9: The area of the disease spots accounts for more than 50% of the whole leaf area.

Series [1] has as its system ryegrass under high-temperature stress. Kind of series: Ryegrass under high-temperature stress. The series is classed as in vivo. Conditions: for PIABS (photosynthetic performance index): ryegrass after 45° C. for 12 h; for Heat damage index: 45° C. 12 h, recovered 7 d. On the procedure: Set 4 groups for each concentration and meanwhile set a room-temperature blank control. Weigh 0.8 g of ryegrass seeds per bowl, sow them in bowls with a diameter of 8.5 cm, and grow in a greenhouse at 25° C., RH 60%-70% and luminous intensity of 200 μmol m^−2s^−1(12 h illumination/12 h darkness). Start treatment after ryegrass has grown for 7 dby the method of spraying a 2-amino-3-(4-hydroxyphenyl) butyric acid solution on the leaf surface twice in 24 h.24 h after the second treatment, transfer them to an illumination incubator of 45° C. for high-temperature stress treatment, and after 12 h, conduct dark treatment at room temperature for 30 min, then determine the chlorophyll fluorescence of […] leaves by plant efficiency Handy-PEA, then transfer the plants to a 25° C. greenhouse and recover them for 7 d, observe and calculate the damage condition of the plants and calculate the heat damage levels. The heat damage grading standard is shown in Table 9 and the heat damage calculation formula is as follows.

Another series relates to cotton under salt stress. As to the kind of experiment: Hydroponic cotton under salt stress (100 mM NaCl). The series is classed as in vivo, cotton (Si Kang 1#). Conditions: 100 mM NaCl for three days. As to the method:
The experimental material is “Si Kang 1#” cotton. Use 500 mL plastic cups for hydroponic culture and replace the ½Hoagland nutrient solution once every two days. Spray a 2-amino-3-hydroxy-3-methylbutyric acid solution on the leaf surface when the cotton seedlings grow until the second true leaf is fully open, set the concentrations at 0, 1, 10, 100 and 1,000 nM in the experiment, and add 0.02% Tween 20 as a surfactant. Spray once every 24 h, twice in total, add NaCl to the ½Hoagland nutrient solution on the second day after treatment to make its final concentration be 100 mM, and conduct salt stress treatment. Repeat each treatment three times. Rewater after three days of salt stress, observe the salt damage symptoms of cotton, and calculate the salt damage index by the following formula: […]

Series [2] concerns Arabidopsis under high-temperature stress. Kind of series: Arabidopsis under high-temperature stress. Conditions: for PIABS (photosynthetic performance index): Arabidopsis after 45° C. for 12 h; for Heat damage index: 45° C. 12 h, recovered 7 d. The series is classed as in vivo. On the procedure: Take 2-amino-3-hydroxy-3-methylbutyric acid, dissolve it with distilled water, then dilute the solution with distilled water by gradient into 10 nM, 100 nM, 1,000 nM and 10,000 nM solutions, set a blank control, and meanwhile add 0.02% Tween 20 as a surfactant. Set 4 groups for each concentration and meanwhile set a room-temperature blank control. Sow about 50 Arabidopsis seeds in each bowl with a diameter of 8.5 cm, and grow in a greenhouse at 25° C., RH 60%-70% and luminous intensity of 200 μmol m^−2s^−1(16 h illumination/8 h darkness). Start treatment in 21 d of the Arabidopsis seedling stage by the method of spraying a 2-amino-3-hydroxy-3-methylbutyric acid solution on the leaf surface twice in 24 h. 24 h after the second treatment, transfer them to an illumination incubator of 45° C. for high-temperature stress treatment, and after 12 h, conduct dark treatment at room temperature for 30 min, then determine the chlorophyll fluorescence of Arabidopsis leaves by plant efficiency Handy-PEA, then transfer the plants to a 25° C. greenhouse and recover them for 7 d, observe and calculate the damage condition of the plants and calculate the heat damage levels. The heat damage grading standard is shown in Table 9 and the heat damage index calculation formula is as follows.

In a further series the test system is rat brain glial cells. Conditions: concentration of 10μgmL^−1; cited from earlier work.
Where [3] appears, read: 10,000 nM (so in the source), ryegrass, high-temperature stress, vs 0 nM.
The mark [4] stands for this setting: 10,000 nM, Arabidopsis, high-temperature stress, vs 0 nM.

Where “and” joins values, the source holds several entries; their conditions need not be identical. Equal entries are not always repeated.

Consider `CC(c1ccc(O)cc1)C(N)C(=O)O` (centres unmarked) [2-amino-3-(4-hydroxyphenyl) butyric acid], for which the Thousand kernel weight with wheat powdery mildew was 37.92 g and 37.92 ± 0.21 a g. This compound gave a Relative immune effect with wheat powdery mildew of 47.28%. The “PIABS (photosynthetic performance index)” value in series [1] (1 nM) is 0.78 ± 0.23bc; in series [1] (10 nM), 0.95 ± 0.41bc; in series [1] (100 nM) it was 1.50 ± 0.54b; in series [1] (1,000 nM), 2.61 ± 1.05ab. The Heat damage index in series [1] (1 nM, ryegrass) is on record as 81%; in series [1] (10 nM, ryegrass), 66.67%; in series [1] (100 nM, ryegrass), 55%; in series [1] (1,000 nM, ryegrass), 35%. Moreover, the “Decrease of heat damage index” value in series [1] (setting [3]) is given as 55%. For the same compound, the “Increase of PIABS” value in series [1] (setting [3]) was found to be 366%. In addition, the Death rate in the series with cotton under salt stress (1 nM) amounted to 48%; in the series with cotton under salt stress (10 nM), 45%; in the series with cotton under salt stress (100 nM) it was 30%; with cotton under salt stress (1,000 nM) it was 29%. Also, the Salt damage index in the series with cotton under salt stress (1 nM) is 64%; in the series with cotton under salt stress (10 nM), 56%; in the series with cotton under salt stress (100 nM) it was 52%; with cotton under salt stress (1,000 nM), 43%.

With `CC(C)(O)C(N)C(=O)O` (centres unmarked) [2-amino-3-hydroxy-3-methylbutyric acid], the Thousand kernel weight in the series with wheat powdery mildew is 32.61 g and 32.61 ± 0.18 a g. Also, the Relative immune effect in the series on wheat powdery mildew came to 38.74%. Also, the “PIABS (photosynthetic performance index)” value in series [2] (10 nM) was 10.60 ± 0.32 c; in series [2] (100 nM), 11.27 ± 0.89 c; in series [2] (1,000 nM), 13.61 ± 0.38 b; in series [2] (10,000 nM) it was 15.60 ± 0.78 ab. The Heat damage index in series [2] (10 nM, Arabidopsis) was found to be 60%; in series [2] (100 nM, Arabidopsis), 45%; in series [2] (1,000 nM, Arabidopsis), 20%; in series [2] (10,000 nM, Arabidopsis), 15%. Further, the “Decrease of heat damage index” value in series [2] (setting [4]) is 65%. Further, the “Increase of PIABS” value in series [2] (setting [4]) was 106%. Moreover, the Death rate was determined as 51% in the series with cotton under salt stress (1 nM), 47% in the series with cotton under salt stress (10 nM), 34% in the series with cotton under salt stress (100 nM) and 30% in the series with cotton under salt stress (1,000 nM). Also, the Salt damage index was 66% with cotton under salt stress (1 nM), 58% with cotton under salt stress (10 nM), 54% in the series on cotton under salt stress (100 nM) and 48% with cotton under salt stress (1,000 nM). Further, the “Toxicity to rat brain glial cells” value in the series with rat brain glial cells is given as “weakly toxic”.
